Measurements as given in PubChem BioAssay (NCI).
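A five-concentration, 48-hour dose response in 96-well plates underlies each endpoint, interpolated linearly between surrounding concentrations. GI50 = concentration required for 50% inhibition of growth. TGI: concentration producing complete growth inhibition.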

Experiments:
Experiment in all cases: inhibition of tumour cell growth, NCI panel, 48 h
[1] = test system: MDA-MB-231 breast
[2] = test system: HOP-62 NSCLC
[3] = test system: SK-MEL-28 melanoma
[4] = test system: RXF 393 renal
[5] = test system: SNB-75 CNS
[6] = test system: HCT-15 colon
[7] = test system: UACC-257 melanoma
[8] = test system: CAKI-1 renal
[9] = test system: EKVX NSCLC
[10] = test system: OVCAR-8 ovarian
[11] = test system: OVCAR-4 ovarian
[12] = test system: CCRF-CEM leukemia
[13] = test system: M14 melanoma
[14] = test system: K-562 leukemia
[15] = test system: A498 renal
[16] = test system: SF-539 CNS
[17] = test system: COLO 205 colon
[18] = test system: DU-145 prostate
[19] = test system: IGROV1 ovarian
[20] = test system: SK-MEL-2 melanoma
[21] = test system: SR leukemia
[22] = test system: BT-549 breast
[23] = test system: NCI-H226 lung
[24] = test system: UACC-62 melanoma
[25] = test system: PC-3 prostate
[26] = test system: NCI-H522 lung
[27] = test system: NCI-H460 lung
[28] = test system: HT29 colon
[29] = test system: A549 NSCLC
[30] = test system: U251 CNS
[31] = test system: HOP-92 NSCLC
[32] = test system: SF-268 CNS
[33] = test system: OVCAR-5 ovarian
[34] = test system: T-47D breast
[35] = test system: ACHN renal
[36] = test system: RPMI-8226 leukemia
[37] = test system: HL-60(TB) leukemia
[38] = test system: MDA-MB-435
[39] = test system: MCF7 breast
[40] = test system: 786-0 renal
[41] = test system: NCI/ADR-RES ovarian
[42] = test system: SF-295 CNS
[43] = test system: HCT-116 colon
[44] = test system: SK-MEL-5 melanoma
[45] = test system: SNB-19 CNS
[46] = test system: SW-620 colon
[47] = test system: SN12C renal
[48] = test system: SK-OV-3 ovarian
[49] = test system: TK-10 renal
[50] = test system: MALME-3M melanoma
[51] = test system: NCI-H23 lung
[52] = test system: HCC-2998 colon
[53] = test system: MOLT-4 leukemia
[54] = test system: KM12 colon
[55] = test system: HS 578T breast
[56] = test system: UO-31 renal
[57] = test system: LOX IMVI melanoma

`CCC(CC)N1C(=O)/C(=c2\sc3n(c2=O)C2C(NN=3)N(CC)C(=O)N2CC)c2ccccc21` (centres undefined) showed a GI50 [1] of 591 nM, a TGI [1] of 12000 nM and a GI50 [2] of 554 nM. The TGI [2] was 22500 nM, the GI50 [3] was 5820 nM and the TGI [3] was 60200 nM. For the same compound, the GI50 [4] was 326 nM, the TGI [4] was 16700 nM and the GI50 [5] was 198 nM. For the same compound, the TGI [5] was 714 nM, the GI50 [6] was 353 nM and the TGI [6] was 13100 nM. For the same compound, the GI50 [7] was 7210 nM, the TGI [7] was greater than 78000 nM and the GI50 [8] was 577 nM. The TGI [8] was 14900 nM, the GI50 [9] was 734 nM and the TGI [9] was greater than 87800 nM. For the same compound, the GI50 [10] was 397 nM, the TGI [10] was 26700 nM and the GI50 [11] was 10400 nM. It also gave a TGI [11] greater than 100000 nM, a GI50 [12] of 365 nM and a TGI [12] greater than 94000 nM. For the same compound, the GI50 [13] was 337 nM, the TGI [13] was 11500 nM and the GI50 [14] was 351 nM. The TGI [14] was greater than 100000 nM, the GI50 [15] was 287 nM and the TGI [15] was 925 nM. For the same compound, the GI50 [16] was 307 nM, the TGI [16] was 3430 nM and the GI50 [17] was 317 nM. The TGI [17] was 1120 nM, the GI50 [18] was 453 nM and the TGI [18] was 17200 nM. For the same compound, the GI50 [19] was 554 nM, the TGI [19] was 19200 nM and the GI50 [20] was 1920 nM. It also gave a TGI [20] of 5880 nM, a GI50 [21] of 361 nM and a TGI [21] greater than 35100 nM. It also gave a GI50 [22] of 465 nM, a TGI [22] of 3290 nM and a GI50 [23] of 923 nM. For the same compound, the TGI [23] was 37100 nM, the GI50 [24] was 538 nM and the TGI [24] was 21600 nM. The GI50 [25] was 473 nM, the TGI [25] was greater than 100000 nM and the GI50 [26] was 312 nM. For the same compound, the TGI [26] was 3360 nM, the GI50 [27] was 364 nM and the TGI [27] was 29000 nM. It also gave a GI50 [28] of 326 nM, a TGI [28] of 3040 nM and a GI50 [29] of 503 nM. It also gave a TGI [29] of 21700 nM, a GI50 [30] of 405 nM and a TGI [30] of 15500 nM. For the same compound, the GI50 [31] was 2410 nM, the TGI [31] was 45400 nM and the GI50 [32] was 1070 nM. It also gave a TGI [32] of 29300 nM, a GI50 [33] of 538 nM and a TGI [33] of 35300 nM. The GI50 [34] was 2800 nM, the TGI [34] was greater than 65600 nM and the GI50 [35] was 690 nM. The TGI [35] was 16600 nM, the GI50 [36] was 442 nM and the TGI [36] was 8450 nM. For the same compound, the GI50 [37] was 288 nM, the TGI [37] was 888 nM and the GI50 [38] was 240 nM. For the same compound, the TGI [38] was 602 nM, the GI50 [39] was 364 nM and the TGI [39] was 14000 nM. For the same compound, the GI50 [40] was 665 nM, the TGI [40] was 14800 nM and the GI50 [41] was 385 nM. It also gave a TGI [41] of 15600 nM, a GI50 [42] of 324 nM and a TGI [42] of 12300 nM. It also gave a GI50 [43] of 345 nM, a TGI [43] of 5180 nM and a GI50 [44] of 590 nM. It also gave a TGI [44] of 4100 nM, a GI50 [45] of 465 nM and a TGI [45] of 24600 nM. The GI50 [46] was 458 nM, the TGI [46] was greater than 100000 nM and the GI50 [47] was 1200 nM. The TGI [47] was 17800 nM, the GI50 [48] was 629 nM and the TGI [48] was 51800 nM. For the same compound, the GI50 [49] was 9040 nM, the TGI [49] was 29100 nM and the GI50 [50] was 3460 nM. The TGI [50] was 35100 nM, the GI50 [51] was 535 nM and the TGI [51] was 17800 nM. For the same compound, the GI50 [52] was 370 nM, the TGI [52] was 12600 nM and the GI50 [53] was 434 nM. For the same compound, the TGI [53] was greater than 41100 nM, the GI50 [54] was 431 nM and the TGI [54] was 25100 nM. For the same compound, the GI50 [55] was 381 nM, the TGI [55] was 22500 nM and the GI50 [56] was 688 nM. For the same compound, the TGI [56] was 33800 nM, the GI50 [57] was 345 nM and the TGI [57] was 11100 nM.
